Source: article PMC11190158, “Study on the design, synthesis, and activity of anti-tumor staple peptides targeting MDM2/MDMX” (Frontiers in Chemistry, 2024)
In brackets after ≈: the same amount, converted by molar mass. Entries after “also recorded” stand apart in the source; their conditions may differ. Positions of bridges follow the written chain, without caps; N, C: chain ends. Non-standard residues stand in square brackets, D forms with d. Residues, ends and D or L forms follow the SMILES beside them. S5 = C=CCCC[C@](C)(N)C(=O)O

Tests used:
U251 [1] = assay: Apoptosis assay (Annexin V/PI, flow cytometry); format: cell-based, human; parameters: LR / UR / LR+UR: unit not given here; conditions: for LR+UR: total apoptosis
Description: (§1) Fluorescent probes were used to detect normal viable cells, apoptotic cells, and necrotic cells by double labeling of cells, and the morphological characteristics of the apoptotic cells were explored. A Petri dish with 8–90% confluence was taken from the incubator. Tumor cells were collected, and the cells were counted under the microscope through the cell slide. A cell suspension of the appropriate concentration was prepared. Different concentrations of peptide samples were added according to the experimental group. Three compound wells were set up in each group; the control group was set up without peptides, and the blank group was set up without cells. Then, 300 μL of Binding Buffer was added after 24 h of dosing, and 2 μL of Annexin V was added to each tube, pipetted to mix it well, and then incubated at room temperature in the dark for 15 min. Then, 2 μL of PI solution was added before placing it on the machine, and one tube without dye was used as a negative control. On-machine assays were performed with flow cytometry. […] Total apoptosis = LR region + UR region.

U87 MG [2] = system: U87 MG
U251 [3] = assay: Apoptosis assay (Annexin V/PI, flow cytometry); format: cell-based, human; conditions: U251, 20 μM, 36 h (legend; method 24 h), mean
[4] = Circular dichroism, degree of helicity; format: physicochemical; conditions: CD, PB pH 7.2, 10–50 mmol/L peptide, ambient temperature, 1-mm path length, 185–255 nm
Description: The staple peptides were soluble in PB with a pH of 7.2 at a concentration of 10–50 mmol/L. CD experiments were performed using a Jasco J-715 Spectropolarimeter at ambient temperature. A quartz cuvette with a 1-mm path length was used for the spectrum collection (wavelength, 185–255 nm; step resolution, 0.0001 mm; speed, 1.2 μm/h; accumulations, 6; and bandwidth, 0.0001 mm). We calculated the helicity of each peptide using Eq.

tumor cells = assay: Cytotoxicity / cell viability assay (CCK-8), cell line not given; format: cell-based, human; conditions: for anti-proliferative / tumor suppressive activity (in words): HCT116 p53^+/+, HCT116 p53−/−, U87 and U251 cell viability experiments, versus template straight-chain peptide; for concentration at which in vitro anti-tumor activity was exhibited: compared to linear peptide M3-1, cell line not named
Description: Human colon cancer cell lines HCT116 p53^+/+, HCT116 p53^−/−, U87 MG, and U251 were maintained in McCoy’s 5A Medium supplemented with 10% heat-inactivated FCS and 1% penicillin–streptomycin at 37°C, 5% CO2, and under complete humidification conditions. The cells (3×10^3 cells/well) were inoculated in 96-well plates and treated with different concentrations of polypeptides for 72 h. The absorbance at 450 nm was then measured using the CCK-8 Kit, and the percentage of cell survival was calculated based on the ratio of the sample well to the reference well A450.

HCT116 p53^−/− = conditions: 72 h
U251 [5] = system: U251
U87 MG [6] = assay: Apoptosis assay (Annexin V/PI, flow cytometry); format: cell-based, human; parameters: LR / UR / LR+UR: unit not given here; conditions: for LR+UR: total apoptosis
Description: as §1, with “Then, 300 μL of Binding Buffer was added after 24 h of dosing, and 2 μL of Annexin V was added to each tube, pipetted to mix it well, and then incubated at room temperature in the dark for 15 min.” left out

HCT116 p53^+/+ = conditions: 72 h
circular dichroism = conditions: phosphate buffer (PB); pH 7.2; ns °C; 10-50 (printed mmol/L, probably uM)
MDM2 = system: MDM2; parameters: method as in 2 sources, one per row (each row's own in cited_ref): ref Zhan and Lu, 2011; Brown et al., 2013; Wade et al., 2013 ||| ref Zhan et al., 2012a; Zhan et al., 2012b; Li et al., 2021; conditions: in words, surface plasmon resonance and fluorescence polarization, ref Zhan et al., 2012a, 2012b, Li et al., 2021; cited from earlier work
MDMX = system: MDMX; parameters: method as in 2 sources, one per row (each row's own in cited_ref): ref Zhan and Lu, 2011; Brown et al., 2013; Wade et al., 2013 ||| ref Zhan et al., 2012a; Zhan et al., 2012b; Li et al., 2021; conditions: in words, surface plasmon resonance and fluorescence polarization, ref Zhan et al., 2012a, 2012b, Li et al., 2021; cited from earlier work
[7] = U251, 5 μM, sample 9 (replicate 1)
[8] = U251, 5 μM, sample 10 (replicate 2)
[9] = U251, 10 μM, sample 11 (replicate 1)
[10] = U251, 10 μM, sample 12 (replicate 2)
[11] = U251, 20 μM, sample 13 (replicate 1)
[12] = U251, 20 μM, sample 14 (replicate 2)
[13] = 20 μM, 36 h (legend; method 24 h), Annexin V/PI, mean

For `CSCC[C@H](NC(=O)[C@H](CC(C)C)NC(=O)[C@]1(C)CCCC=CCCC[C@](C)(NC(=O)[C@H](CC(C)C)NC(=O)[C@H](Cc2ccccc2)NC(=O)[C@@H](NC(=O)[C@H](CC(C)C)NC(=O)[C@H](CCCCN)NC(C)=O)[C@@H](C)O)C(=O)N[C@@H](Cc2ccc(O)cc2)C(=O)N[C@@H](Cc2c[nH]c3ccccc23)C(=O)N[C@@H](C)C(=O)N1)C(=O)N[C@@H](CCC(N)=O)C(=O)N[C@@H](CCCCN)C(N)=O` [SM3-4] (Ac-KLTFL[S5]YWA[S5]LMQK-NH2; staple 6-10), the LR (U251 [1]; [7]) was 0.89, the UR (U251 [1]; [7]) was 2.73 and the “LR+UR” value (U251 [1]; [7]) was 3.62. The LR (U251 [1]; [8]) was 0.47, the UR (U251 [1]; [8]) was 1.92 and the “LR+UR” value (U251 [1]; [8]) was 2.39. For the same compound, the LR (U251 [1]; [9]) was 1.47, the UR (U251 [1]; [9]) was 1.92 and the “LR+UR” value (U251 [1]; [9]) was 3.39. The LR (U251 [1]; [10]) was 1.12, the UR (U251 [1]; [10]) was 1.94 and the “LR+UR” value (U251 [1]; [10]) was 3.06. The LR (U251 [1]; [11]) was 6.85, the UR (U251 [1]; [11]) was 8.8 and the “LR+UR” value (U251 [1]; [11]) was 15.65. For the same compound, the LR (U251 [1]; [12]) was 4.92, the UR (U251 [1]; [12]) was 13.66 and the “LR+UR” value (U251 [1]; [12]) was 18.58. The “apoptotic effect (in words)” value (U251 [1]; U251, 5, 10 and 20 μM) was “significant apoptotic effect”, the IC50 (U87 MG [2]; 72 h) was 7.84 µM and the minimum inhibitory concentration (U87 MG [2]; 72 h) was 8 µM (≈ 14.7 µg/mL). For the same compound, the “LR: apoptotic cells” value (U251 [3]) was 5.885%, the “UR: dead cells” value (U251 [3]) was 11.23% and the helicity [4] was 28.96%. For the same compound, the “anti-proliferative / tumor suppressive activity (in words)” value (tumor cells) was “significantly improved; also recorded: strongest anti-proliferative activity”, the “concentration at which in vitro anti-tumor activity was exhibited” value (“concentration at which” below) (tumor cells) was 25 µM and the IC50 (HCT116 p53^−/−) was 33.2 µM. For the same compound, the IC50 (U251 [5]; 72 h) was 14.7 µM, the minimum inhibitory concentration (U251 [5]; 72 h) was 16 µM (≈ 29.3 µg/mL) and the LR (U87 MG [6]; 5 μM, sample 1 (replicate 1)) was 1.25. The UR (U87 MG [6]; 5 μM, sample 1 (replicate 1)) was 3.07, the “LR+UR” value (U87 MG [6]; 5 μM, sample 1 (replicate 1)) was 4.32 and the LR (U87 MG [6]; 5 μM, sample 2 (replicate 2)) was 1.04. The UR (U87 MG [6]; 5 μM, sample 2 (replicate 2)) was 3.27, the “LR+UR” value (U87 MG [6]; 5 μM, sample 2 (replicate 2)) was 4.31 and the LR (U87 MG [6]; 10 μM, sample 3 (replicate 1)) was 1.11. The UR (U87 MG [6]; 10 μM, sample 3 (replicate 1)) was 6.12, the “LR+UR” value (U87 MG [6]; 10 μM, sample 3 (replicate 1)) was 7.23 and the LR (U87 MG [6]; 10 μM, sample 4 (replicate 2)) was 2.02. For the same compound, the UR (U87 MG [6]; 10 μM, sample 4 (replicate 2)) was 3.16, the “LR+UR” value (U87 MG [6]; 10 μM, sample 4 (replicate 2)) was 5.18 and the “LR: apoptotic cells” value (U87 MG [6]; [13]) was 29.91%. For the same compound, the “UR: dead cells” value (U87 MG [6]; [13]) was 42.285%, the LR (U87 MG [6]; 20 μM, sample 5 (replicate 1)) was 26.96 and the UR (U87 MG [6]; 20 μM, sample 5 (replicate 1)) was 37.58. For the same compound, the “LR+UR” value (U87 MG [6]; 20 μM, sample 5 (replicate 1)) was 64.54, the LR (U87 MG [6]; 20 μM, sample 6 (replicate 2)) was 32.86 and the UR (U87 MG [6]; 20 μM, sample 6 (replicate 2)) was 46.99. The “LR+UR” value (U87 MG [6]; 20 μM, sample 6 (replicate 2)) was 79.85, the “apoptotic effect (in words)” value (U87 MG [6]; 5, 10 and 20 μM) was “significant apoptotic effect” and the IC50 (HCT116 p53^+/+) was 77.5 µM. The helicity (circular dichroism) was 29%.
With `CSCC[C@@H]1NC(=O)[C@H](CC(C)C)NC(=O)[C@H](CCC(N)=O)NC(=O)[C@@](C)(NC(=O)[C@H](Cc2c[nH]c3ccccc23)NC(=O)[C@H](Cc2ccc(O)cc2)NC(=O)[C@H](CCC(=O)O)NC(=O)[C@H](CC(C)C)NC(=O)[C@H](Cc2ccccc2)NC(=O)[C@@H](NC(=O)[C@H](CC(C)C)NC(=O)[C@H](CCCCN)NC(C)=O)[C@@H](C)O)CCCC=CCCC[C@@](C)(C(=O)N[C@@H](CCCCN)C(N)=O)NC1=O` [SM3-5] (Ac-KLTFLEYW[S5]QLM[S5]K-NH2; staple 9-13) the IC50 (U87 MG [2]; 72 h) was 31.2 µM, the “concentration at which” value (U87 MG [2]; U87 MG tumor cells, CCK-8) was 25 µM and the helicity [4] was 42.85%. The “anti-proliferative / tumor suppressive activity (in words)” value (tumor cells) was “significantly improved”, the “concentration at which” value (tumor cells) was 25 µM and the IC50 (HCT116 p53^−/−) was 27.4 µM. The IC50 (U251 [5]; 72 h) was 35.9 µM, the “concentration at which” value (U251 [5]; U251 tumor cells, CCK-8) was 50 µM and the IC50 (HCT116 p53^+/+) was 27.3 µM. It also gave a helicity (circular dichroism) of 42.9%.
For LTFLEYWAQLMQ [PMI-M3], the “binding to MDM2” value (MDM2) is given as “binds well” and the “binding to MDMX” value (MDMX) is given as “binds well”.
